# Values of other authors, collected in patent US20240180871A1, “MODIFIED-RELEASE SILODOSIN COMPOSITIONS AND USE THEREOF IN METHODS FOR MALE CONTRACEPTION” (PHARMAJOR INCORPORATED, priority 2022, published 2024).
# Read-outs that look alike come from different tables or passages of the source.
Structure (SMILES),solubility (in acetic acid),solubility (in alcohol),solubility (in water),"effect on semen in male subjects (male subjects; during BPH treatment, in some cases, KOBAYASHI 2009, SAKATA 2012)",sex-related adverse effects associated with administration (male subjects; known in the art)
"C[C@H](Cc1cc2c(c(C(N)=O)c1)N(CCCO)CC2)NCCOc1ccccc1OCC(F)(F)F [(R)-silodosin, (−)-(R)-1-(3-hydroxypropyl)-5-[2-[[2-[2-(2,2,2-trifluoroethoxy)phenoxy]ethyl]amino]propyl]indoline-7-carboxamide]",very soluble,freely soluble,very slightly soluble,,
"CC(Cc1cc2c(c(C(N)=O)c1)N(CCCO)CC2)NCCOc1ccccc1OCC(F)(F)F (centres unmarked) [silodosin, 1-(3-hydroxypropyl)-5-[2-[[2-[2-(2,2,2-trifluoroethoxy)phenoxy]ethyl]amino]propyl]indoline-7-carboxamide]",,,,"causing aspermia, azoospermia, or severe oligozoospermia","discomfort upon ejaculation, decrease in the quality of orgasm, decrease in erectile function, and reduction of sexual desire"
